Experimental data from US9603859B2, “Methods and products for increasing the rate of healing of tissue wounds” (BRIGHAM YOUNG UNIVERSITY, priority 2011, dated 2017).

Experiments:
[1] = system: primary human MSC cells; assay: Wound healing array q-PCR gene expression in mesenchymal stem cells; assay type: cell-based; details: 8 hours treatment
Source text: To determine the role of synthetic Ceragenins CSA-13, 44 and 90 in wound healing using mesenchymal stem cells (MSC), targeted mRNA panels from SABiosciences, and primary cells from Lonza were selected. Cells were purchased from Lonza.com and used fresh for each test using recommended media and culture conditions. After treatment, mRNA was isolated using Qiagen RNeasy Mini Kit®, and quantified using a NanoDrop 2000® by UV at 260 nm and 260/280 ratio for purity. cDNA was made using a First Strand Kit® from SABiosciences and processed for real time PCR using a kit from the same company for selected analysis of wound healing pathways. Results from q-PCR were uploaded to the SABiosciences site and to Ingenuity.com web site for analysis and pathway mapping. SABiosciences wound healing array plates (Cat# PAHS-121) and innate/acquired immune response plates (PAHS-052) were used. These arrays are fully validated when used as recommended. On day 1, primary human MSC cells were plated at 200,000 cells/well using 6-well plates with 3 ml of recommended media—hMSC Basal Medium+BulletKit (50 ml Growth Supplement, 10 ml L-Glutamine and 0.5 ml Gentamicin Sulfate Amphotercin-B) for 24 hours. Only early passages of cells were used, and never from frozen stock. On day 2, cells were treated with compounds dissolved in DMSO diluted 1:1000 or more to avoid effects of the solvent. Final testing concentration for CSA-13 was 5.0 μM. Treatment lasted 8 hours, and was followed by RNA isolation using QIAGEN RNeasy Mini Kit® (74104). RNA was measured at 260/280 nm using a NanoDrop 2000® and normalized to 2.4 ng per well, cDNA preparation was done using QIAGEN First Strand kit 330401. q-PCR was run as absolute quantification and threshold set at 0.1 units. Dendritic cells were plated at 500,000 cells/well using 24-well plate with 500 ul of Lonza LGM-3 Complete Growth Medium with and without compound. Treatment lasted 8 hours, and was followed by RNA isolation using QIAGEN RNeasy Mini Kit® (74104). RNA was measured at 260/280 nm using NanoDrop2000® and normalized to 2.4 ng per well, cDNA preparation was done using QIAGEN First Strand kit 330401. PCR was run as absolute quantification and threshold set at 0.1 units. For the wound healing array, strong upregulation of growth factors such as HB-EGF and cell migration factors such as MMP1 and CXCL2 were found, indicating a clear potential for CSA as a modulator of wound healing. Additional gene expression data is provided in Tables 1-3 for CSA-13, 44, and 90, respectively.

[2] = system: torn right front shoulder wound; assay: Treatment of torn right front shoulder wound in a horse; assay type: in vivo; details: 0.04% solution in water sprayed twice a day
Experimental: This wound occurs commonly in horses and usually takes 3 to 6 months to heal. Typically this wound will result in a significant loss of muscle in the region. This wound was treated twice a day with a 0.04% solution of CSA-44 in water. The tissue treatment composition was applied by spraying sufficient composition to wet the entire surface of the wound.

[3] = system: laceration to left hind cannon region; assay: Treatment of laceration to left hind cannon region of a broodmare; assay type: in vivo; details: horse; 0.04% solution in water twice daily; no wrap
Experimental: A reining broodmare in Texas was involved in an accident resulting in a laceration to her left hind cannon region. The wound was 3 inches in length and 2 inches wide. The laceration extended all the way to the cannon bone, exposing the periosteum. This wound was also treated with a 0.04% solution of CSA-44 in water twice daily. No wrap was applied (i.e., no immobilization). The wound closed in 11 days with normal hair growth at 30 days. This type of wound would usually require aggressive wraps for 3 months with the possibility of other procedures being necessary for the excessive granulation tissue that commonly develops.

[4] = system: scratches (fungal infection of the lower extremities with secondary bacterial infection); assay: Treatment of extreme case of scratches in a horse; assay type: in vivo
Source text: A horse with an extreme case of scratches was successfully healed using CSA. Scratches is a fungal infection of the lower extremities in horses. This infection usually results in not only a fungal but also a secondary bacterial infection. In this case, the horse developed severe and debilitating granulation tissue of the ankle resulting in poor mobility due to cracking and bleeding. […] The chronic infection persisted for over two years despite the multiple attempts to treat with an antimicrobial. Due to the debilitating wound the horse was slated for slaughter. […] Normal hair growth and tissue was present in 4 weeks.

[5] = system: fungal infection of the skin (summer itch); assay: Treatment of fungal infection of the skin (summer itch) in a show mare; assay type: in vivo; details: horse; 0.04% solution in water twice daily
Source text: A show mare developed an uncontrollable fungal infection of the skin. This malady is commonly referred to as summer itch. A 0.04% solution of CSA-44 in water was used twice daily for 3 weeks resulting in complete regrowth of normal skin and hair. Normal treatment time periods for this problem usually range from 3 to 4 months.

[6] = system: chronic non-healing oral cutaneous fistula; assay: Treatment of chronic non-healing oral cutaneous fistula in a horse; assay type: in vivo
Source text: A horse with a chronic non-healing oral cutaneous fistula was first treated with two prior art treatments with no success. The first treatment was with an aqueous spray of Vetericyn (0.007% hypochlorite) for a period of 7 days. […]

Structure (SMILES): CCCCCCCCNCCC[C@@H](C)[C@H]1CC[C@H]2[C@@H]3[C@H](OCCCN)C[C@@H]4C[C@H](OCCCN)CC[C@]4(C)[C@H]3C[C@H](OCCCN)[C@]12C [CSA-13]
- Fold Regulation ANGPT1 ([1]; CSA-13 at 5.0 μM): −2.0046
- Fold Regulation CCL7 ([1]; CSA-13 at 5.0 μM): 1.6632
- Fold Regulation CSF2 ([1]; CSA-13 at 5.0 μM): −2.4867
- Fold Regulation CXCL1 ([1]; CSA-13 at 5.0 μM): 1.6181
- Fold Regulation CXCL2 ([1]; CSA-13 at 5.0 μM): 4.873
- Fold Regulation CXCL5 ([1]; CSA-13 at 5.0 μM): 2.0582
- Fold Regulation F3 ([1]; CSA-13 at 5.0 μM): −3.3945
- Fold Regulation F13A1 ([1]; CSA-13 at 5.0 μM): 2.0916
- Fold Regulation FGF2 ([1]; CSA-13 at 5.0 μM): −1.633
- Fold Regulation FGF10 ([1]; CSA-13 at 5.0 μM): 3.8659
- Fold Regulation HBEGF ([1]; CSA-13 at 5.0 μM): 3.255
- Fold Regulation IL2 ([1]; CSA-13 at 5.0 μM): 1.865
- Fold Regulation IL4 ([1]; CSA-13 at 5.0 μM): −1.9944
- Fold Regulation IL6 ([1]; CSA-13 at 5.0 μM): 3.1692
- Fold Regulation IL10 ([1]; CSA-13 at 5.0 μM): −1.6166
- Fold Regulation ITGA2 ([1]; CSA-13 at 5.0 μM): 3.5659
- Fold Regulation ITGB3 ([1]; CSA-13 at 5.0 μM): −1.5243
- Fold Regulation MMP1 ([1]; CSA-13 at 5.0 μM): 4.4172
- Fold Regulation PLAT ([1]; CSA-13 at 5.0 μM): −2.1487
- Fold Regulation PLAU ([1]; CSA-13 at 5.0 μM): 1.7849
- Fold Regulation PLAUR ([1]; CSA-13 at 5.0 μM): 1.6286
- Fold Regulation PTGS2 ([1]; CSA-13 at 5.0 μM): 3.3333
- Fold Regulation VEGFA ([1]; CSA-13 at 5.0 μM): 1.7274
- Fold Regulation VTN ([1]; CSA-13 at 5.0 μM): 2.0612

Structure (SMILES): CCCCCCCCOC(=O)CC[C@@H](C)[C@H]1CC[C@H]2[C@@H]3[C@H](OC(=O)CCN)C[C@@H]4C[C@H](OC(=O)CCN)CC[C@]4(C)[C@H]3C[C@H](OC(=O)CCN)[C@]12C [CSA-44]
- Fold Regulation ACTA2 [1]: −1.9377
- Fold Regulation ACTB [1]: −1.7981
- Fold Regulation CCL2 [1]: −3.1925
- Fold Regulation CDH1 [1]: −2.7158
- Fold Regulation COL1A2 [1]: 1.5483
- Fold Regulation COL3A1 [1]: 1.7385
- Fold Regulation COL4A3 [1]: −2.4845
- Fold Regulation CTGF [1]: −24.5295
- Fold Regulation CTSK [1]: 1.6388
- Fold Regulation CTSL2 [1]: 1.7924
- Fold Regulation EGFR [1]: 1.5364
- Fold Regulation FGF7 [1]: 4.84
- Fold Regulation HGF [1]: 3.1098
- Fold Regulation IGF1 [1]: 1.6877
- Fold Regulation ITGB6 [1]: 1.6323
- Fold Regulation MMP9 [1]: 1.5543
- Fold Regulation SERPINE1 [1]: −2.9618
- Fold Regulation TGFBR3 [1]: −2.0462
- Fold Regulation TIMP1 [1]: 1.6126
- Fold Regulation WISP1 [1]: −1.9722
- Fold Regulation ANGPT1 ([1]; CSA-13 at 5.0 μM): −2.0857
- Fold Regulation CCL7 ([1]; CSA-13 at 5.0 μM): 2.1961
- Fold Regulation CSF2 ([1]; CSA-13 at 5.0 μM): −1.8551
- Fold Regulation CXCL2 ([1]; CSA-13 at 5.0 μM): 14.3964
- Fold Regulation F13A1 ([1]; CSA-13 at 5.0 μM): 2.0963
- Fold Regulation FGF2 ([1]; CSA-13 at 5.0 μM): −1.6016
- Fold Regulation FGF10 ([1]; CSA-13 at 5.0 μM): 2.2811
- Fold Regulation HBEGF ([1]; CSA-13 at 5.0 μM): 3.5463
- Fold Regulation IL2 ([1]; CSA-13 at 5.0 μM): 2.1928
- Fold Regulation IL6 ([1]; CSA-13 at 5.0 μM): 4.0387
- Fold Regulation IL10 ([1]; CSA-13 at 5.0 μM): −2.0128
- Fold Regulation ITGA2 ([1]; CSA-13 at 5.0 μM): 16.0648
- Fold Regulation ITGB3 ([1]; CSA-13 at 5.0 μM): −1.5802
- Fold Regulation MMP1 ([1]; CSA-13 at 5.0 μM): 68.9688
- Fold Regulation PLAT ([1]; CSA-13 at 5.0 μM): −1.754
- Fold Regulation PLAU ([1]; CSA-13 at 5.0 μM): 1.6131
- Fold Regulation PLAUR ([1]; CSA-13 at 5.0 μM): 2.5454
- Fold Regulation PTGS2 ([1]; CSA-13 at 5.0 μM): 48.6907
- Fold Regulation VEGFA ([1]; CSA-13 at 5.0 μM): 4.6052
- muscle loss after healing [2]: without any apparent muscle loss
- time until wound closed and completely healed ([2]; wound 4 x 6 inches, 3 inches deep): 28 days
- time of normal hair growth [3]: 30 days
- time until wound closed [3]: 11 days
- time until normal hair growth and tissue present ([4]; 0.04% in water sprayed twice daily): 4 weeks
- outcome of wound treatment ([4]; CSA-44 0.04% in water sprayed twice daily for four weeks, comparators before CSA): successfully treated
- treatment time to complete regrowth of normal skin and hair [5]: 3 weeks
- time to closure of the fistula and healthy tissue ([6]; 0.04% CSA-44 in water sprayed once daily): 7 days
- outcome of wound treatment ([6]; Vetericyn (0.007% hypochlorite) aqueous spray 7 days, Furacin Salve daily 5 days, 0.04% CSA-44 in water sprayed once daily 7 days): successfully treated
